{
  "source": "ChEMBL document CHEMBL5465560",
  "about": "“Selectivity Literature for EUbOPEN Chemogenomic Library” (2024)",
  "key": {"[1]": {"target": "T1, Atypical kinase COQ8B, mitochondrial (Homo sapiens) (UniProt Q96D53)", "T1 sequence (whole entry)": "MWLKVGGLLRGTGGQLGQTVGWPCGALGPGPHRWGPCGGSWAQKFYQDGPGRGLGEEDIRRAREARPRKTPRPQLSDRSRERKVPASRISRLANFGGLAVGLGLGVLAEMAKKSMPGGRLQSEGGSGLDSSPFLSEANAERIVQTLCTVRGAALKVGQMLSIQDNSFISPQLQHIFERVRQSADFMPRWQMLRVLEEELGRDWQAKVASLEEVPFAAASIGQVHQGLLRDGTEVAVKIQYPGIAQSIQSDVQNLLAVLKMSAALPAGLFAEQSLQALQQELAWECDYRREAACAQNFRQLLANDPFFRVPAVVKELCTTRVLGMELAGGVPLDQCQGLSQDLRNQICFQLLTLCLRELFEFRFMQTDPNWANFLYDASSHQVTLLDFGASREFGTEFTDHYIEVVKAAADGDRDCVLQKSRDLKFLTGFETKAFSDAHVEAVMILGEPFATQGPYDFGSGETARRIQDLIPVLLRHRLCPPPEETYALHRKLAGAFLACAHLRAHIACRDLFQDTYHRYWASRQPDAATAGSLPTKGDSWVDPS", "assay": "Selectivity interaction (KinomeScan (DiscoverX)) EUB0000092b ADCK4", "conditions": "at 10 µM"}, "[2]": {"target": "Protein kinase C delta type (Homo sapiens) (UniProt Q05655)", "sequence (Q05655 whole entry, looked up)": "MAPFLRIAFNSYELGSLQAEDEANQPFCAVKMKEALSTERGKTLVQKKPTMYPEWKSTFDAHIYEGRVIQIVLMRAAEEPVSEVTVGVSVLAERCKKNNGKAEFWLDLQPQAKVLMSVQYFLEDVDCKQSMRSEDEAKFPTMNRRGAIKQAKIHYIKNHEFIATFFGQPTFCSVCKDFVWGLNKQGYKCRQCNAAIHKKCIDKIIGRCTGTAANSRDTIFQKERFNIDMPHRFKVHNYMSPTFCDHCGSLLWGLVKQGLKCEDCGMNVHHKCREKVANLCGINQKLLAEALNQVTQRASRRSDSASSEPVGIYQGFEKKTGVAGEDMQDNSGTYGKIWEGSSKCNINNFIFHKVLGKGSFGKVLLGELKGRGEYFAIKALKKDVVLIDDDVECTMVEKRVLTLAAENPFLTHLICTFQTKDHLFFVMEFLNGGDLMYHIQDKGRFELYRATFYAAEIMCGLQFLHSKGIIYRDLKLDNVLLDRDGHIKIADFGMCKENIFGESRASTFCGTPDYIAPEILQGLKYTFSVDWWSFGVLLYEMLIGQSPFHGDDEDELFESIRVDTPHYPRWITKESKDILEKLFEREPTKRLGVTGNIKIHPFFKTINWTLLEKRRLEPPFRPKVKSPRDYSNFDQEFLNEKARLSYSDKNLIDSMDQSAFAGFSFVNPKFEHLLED", "assay": "Selectivity interaction (ProQinase) EUB0000171b PRKCD"}, "[3]": {"target": "Serine/threonine-protein kinase PAK 1 (Homo sapiens) (UniProt Q13153)", "sequence (Q13153 whole entry)": "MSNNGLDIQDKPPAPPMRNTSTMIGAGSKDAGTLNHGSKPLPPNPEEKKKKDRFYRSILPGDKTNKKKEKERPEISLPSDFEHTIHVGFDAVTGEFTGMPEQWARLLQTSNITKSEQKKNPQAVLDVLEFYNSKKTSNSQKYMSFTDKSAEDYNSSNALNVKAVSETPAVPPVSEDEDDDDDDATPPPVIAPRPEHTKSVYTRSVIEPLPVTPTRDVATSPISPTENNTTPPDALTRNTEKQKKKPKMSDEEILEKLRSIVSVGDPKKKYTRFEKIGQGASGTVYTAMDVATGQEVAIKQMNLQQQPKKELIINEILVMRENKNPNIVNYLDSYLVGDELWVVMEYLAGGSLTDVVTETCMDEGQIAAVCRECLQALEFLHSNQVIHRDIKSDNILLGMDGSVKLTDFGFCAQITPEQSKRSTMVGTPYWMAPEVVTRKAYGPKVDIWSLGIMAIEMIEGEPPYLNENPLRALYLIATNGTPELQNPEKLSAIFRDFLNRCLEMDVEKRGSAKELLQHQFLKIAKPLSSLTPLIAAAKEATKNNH", "assay": "Selectivity interaction (Kinase panel (DSF assay)) EUB0001559a PAK1"}, "[4]": {"target": "Homeodomain-interacting protein kinase 3 (Homo sapiens, UniProt Q9H422)", "assay": "Selectivity interaction (KinomeScan (DiscoverX)) EUB0001079a HIPK3", "conditions": "at 1 µM"}, "[5]": {"target": "Tyrosine-protein kinase Fyn (Homo sapiens) (UniProt P06241)", "assay": "Selectivity interaction (Millipore kinase profiler) EUB0000124b FYN", "conditions": "at 10 µM"}, "[6]": {"target": "Serine/threonine-protein kinase PAK 1 (Homo sapiens) (UniProt Q13153)", "assay": "Selectivity interaction (Kinase panel (Z-LYTE Assay)) EUB0001632a PAK1", "conditions": "at 10 µM"}, "[7]": {"target": "Serine/threonine-protein kinase pim-1 (Homo sapiens, UniProt P11309)", "sequence (P11309 whole entry, looked up)": "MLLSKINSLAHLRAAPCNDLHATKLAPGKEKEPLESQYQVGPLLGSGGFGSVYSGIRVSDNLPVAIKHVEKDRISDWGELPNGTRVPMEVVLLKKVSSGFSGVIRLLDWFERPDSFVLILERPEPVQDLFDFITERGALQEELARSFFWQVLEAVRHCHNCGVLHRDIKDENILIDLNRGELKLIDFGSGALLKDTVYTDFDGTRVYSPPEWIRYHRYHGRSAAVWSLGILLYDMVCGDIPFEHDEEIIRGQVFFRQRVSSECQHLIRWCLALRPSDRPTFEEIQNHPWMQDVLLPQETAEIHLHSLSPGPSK", "assay": "Selectivity interaction (Kinase panel (Z-LYTE Assay)) EUB0001632a PIM1", "conditions": "at 10 µM"}, "[8]": {"target": "Tyrosine-protein kinase JAK1 (Homo sapiens, UniProt P23458)", "assay": "Selectivity interaction (ActivX KiNativ screen (kinase selectivity in THP-1 cell lysates)) EUB0000639a JAK1", "type": "subcellular", "conditions": "lysate, at 0.01 µM"}, "[9]": {"target": "Casein kinase I isoform gamma-1 (Homo sapiens) (UniProt Q9HCP0)", "sequence (Q9HCP0 whole entry, looked up, canonical isoform)": "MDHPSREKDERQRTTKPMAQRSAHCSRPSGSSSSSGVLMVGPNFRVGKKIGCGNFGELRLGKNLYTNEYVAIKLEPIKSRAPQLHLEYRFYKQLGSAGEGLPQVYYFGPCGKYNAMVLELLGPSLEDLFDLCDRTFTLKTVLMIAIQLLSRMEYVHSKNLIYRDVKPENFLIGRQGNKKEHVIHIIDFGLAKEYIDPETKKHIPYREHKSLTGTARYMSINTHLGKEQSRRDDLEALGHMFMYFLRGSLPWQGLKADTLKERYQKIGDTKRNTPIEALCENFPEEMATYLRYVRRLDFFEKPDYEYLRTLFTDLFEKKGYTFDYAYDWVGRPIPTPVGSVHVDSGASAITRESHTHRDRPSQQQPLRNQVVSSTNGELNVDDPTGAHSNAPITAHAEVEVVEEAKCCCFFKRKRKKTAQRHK", "assay": "Selectivity interaction (Kinase panel (Invitrogen)) EUB0000639a CSNK1G1", "conditions": "at 200 nM"}, "[10]": {"target": "Phosphatidylinositol 4-phosphate 3-kinase C2 domain-containing subunit alpha (Homo sapiens) (UniProt O00443)", "assay": "Selectivity interaction (Kinase panel (Invitrogen)) EUB0000639a PIK3C2A", "conditions": "at 200 nM"}, "[11]": {"target": "Tyrosine-protein kinase Yes (Homo sapiens) (UniProt P07947)", "sequence (P07947 2-543 limits assumed)": "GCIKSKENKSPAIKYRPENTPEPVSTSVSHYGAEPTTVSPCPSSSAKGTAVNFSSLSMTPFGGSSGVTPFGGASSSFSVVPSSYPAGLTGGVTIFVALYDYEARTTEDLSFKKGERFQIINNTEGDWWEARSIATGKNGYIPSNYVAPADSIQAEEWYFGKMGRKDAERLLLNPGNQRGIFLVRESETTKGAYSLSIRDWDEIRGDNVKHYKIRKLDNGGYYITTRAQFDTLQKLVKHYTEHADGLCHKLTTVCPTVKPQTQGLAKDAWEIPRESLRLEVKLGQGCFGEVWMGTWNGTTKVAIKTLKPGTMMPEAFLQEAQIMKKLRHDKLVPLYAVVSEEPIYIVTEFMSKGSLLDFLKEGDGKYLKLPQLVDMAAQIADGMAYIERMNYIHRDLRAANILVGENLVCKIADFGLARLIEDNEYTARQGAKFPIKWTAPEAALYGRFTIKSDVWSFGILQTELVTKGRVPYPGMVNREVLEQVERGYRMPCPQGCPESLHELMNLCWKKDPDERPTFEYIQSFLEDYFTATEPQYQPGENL", "assay": "Selectivity interaction (KinomeScan (DiscoverX)) EUB0000595a YES1", "conditions": "at 10 µM"}, "SRSF protein kinase 1": {"target": "SRSF protein kinase 1 (Homo sapiens, UniProt Q96SB4)", "sequence (Q96SB4 whole entry)": "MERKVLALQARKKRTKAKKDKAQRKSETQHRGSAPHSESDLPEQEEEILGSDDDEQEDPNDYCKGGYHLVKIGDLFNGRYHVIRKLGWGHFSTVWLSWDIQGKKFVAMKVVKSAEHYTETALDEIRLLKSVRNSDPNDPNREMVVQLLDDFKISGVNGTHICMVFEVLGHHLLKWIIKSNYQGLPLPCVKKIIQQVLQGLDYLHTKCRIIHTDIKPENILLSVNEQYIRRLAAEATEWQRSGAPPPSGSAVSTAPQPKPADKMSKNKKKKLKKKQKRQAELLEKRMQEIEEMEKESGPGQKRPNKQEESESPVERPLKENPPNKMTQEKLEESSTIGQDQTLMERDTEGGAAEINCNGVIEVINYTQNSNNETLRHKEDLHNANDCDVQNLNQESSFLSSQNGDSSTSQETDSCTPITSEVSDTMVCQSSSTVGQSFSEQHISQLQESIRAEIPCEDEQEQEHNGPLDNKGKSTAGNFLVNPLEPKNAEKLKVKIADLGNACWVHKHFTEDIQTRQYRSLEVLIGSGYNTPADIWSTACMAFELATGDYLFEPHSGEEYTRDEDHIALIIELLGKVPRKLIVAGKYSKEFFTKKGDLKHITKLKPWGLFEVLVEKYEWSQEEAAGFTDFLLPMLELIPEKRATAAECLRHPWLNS", "assay": "Selectivity interaction (KinomeScan (DiscoverX)) EUB0000595a SRPK1", "conditions": "at 10 µM"}, "[12]": {"target": "Receptor tyrosine-protein kinase erbB-4 (Homo sapiens, UniProt Q15303)", "assay": "Selectivity interaction (KinomeScan (DiscoverX)) EUB0000595a ERBB4", "conditions": "at 10 µM"}, "[13]": {"target": "T2, Serine/threonine-protein kinase BRSK1 (Homo sapiens) (UniProt Q8TDC3)", "T2 sequence (whole entry)": "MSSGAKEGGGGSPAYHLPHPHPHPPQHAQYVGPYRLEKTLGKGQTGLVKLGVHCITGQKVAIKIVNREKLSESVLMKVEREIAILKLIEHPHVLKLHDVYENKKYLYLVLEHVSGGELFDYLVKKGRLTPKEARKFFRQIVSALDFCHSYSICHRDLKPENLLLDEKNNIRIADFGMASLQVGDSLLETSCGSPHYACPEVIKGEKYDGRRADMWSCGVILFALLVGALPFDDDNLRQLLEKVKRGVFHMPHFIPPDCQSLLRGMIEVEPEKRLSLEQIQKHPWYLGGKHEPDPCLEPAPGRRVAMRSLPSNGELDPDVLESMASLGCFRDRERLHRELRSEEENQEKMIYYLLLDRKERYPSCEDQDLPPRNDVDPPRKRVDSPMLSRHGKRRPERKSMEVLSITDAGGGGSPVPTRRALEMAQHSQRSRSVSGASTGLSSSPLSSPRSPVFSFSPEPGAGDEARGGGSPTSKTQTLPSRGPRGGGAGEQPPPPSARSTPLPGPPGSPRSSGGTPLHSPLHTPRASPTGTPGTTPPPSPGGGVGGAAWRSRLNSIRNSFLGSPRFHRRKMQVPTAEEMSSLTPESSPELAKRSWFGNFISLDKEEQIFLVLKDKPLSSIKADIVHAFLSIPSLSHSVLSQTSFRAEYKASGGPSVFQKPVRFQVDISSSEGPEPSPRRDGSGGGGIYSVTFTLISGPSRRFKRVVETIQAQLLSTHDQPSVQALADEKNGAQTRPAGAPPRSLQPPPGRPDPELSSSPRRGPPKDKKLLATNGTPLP", "conditions": "at 10 µM"}, "[14]": {"target": "Tyrosine-protein kinase ABL1 (Homo sapiens, UniProt P00519)", "assay": "(§1) Selectivity interaction (KinomeScan (DiscoverX)) EUB0000618a ABL1", "conditions": "at 10 µM"}, "[15]": {"tested_on": "Tyrosine-protein kinase ABL1 (Homo sapiens), P00519 [T315I]", "assay": "as §1", "conditions": "at 10 µM"}, "[16]": {"tested_on": "Tyrosine-protein kinase ABL1 (Homo sapiens), P00519 [F317L]", "assay": "as §1", "conditions": "at 10 µM"}, "[17]": {"tested_on": "Tyrosine-protein kinase ABL1 (Homo sapiens), P00519 [Y253F]", "assay": "as §1", "conditions": "at 10 µM"}, "[18]": {"tested_on": "Tyrosine-protein kinase ABL1 (Homo sapiens), P00519 [F317I]", "assay": "as §1", "conditions": "at 10 µM"}, "[19]": {"tested_on": "Tyrosine-protein kinase ABL1 (Homo sapiens), P00519 [Q252H]", "assay": "as §1", "conditions": "at 10 µM"}, "[20]": {"tested_on": "Tyrosine-protein kinase ABL1 (Homo sapiens), P00519 [M351T]", "assay": "as §1", "conditions": "at 10 µM"}, "[21]": {"tested_on": "Tyrosine-protein kinase ABL1 (Homo sapiens), P00519 [H396P]", "assay": "as §1", "conditions": "at 10 µM"}, "[22]": {"tested_on": "Tyrosine-protein kinase ABL1 (Homo sapiens), P00519 [E255K]", "assay": "as §1", "conditions": "at 10 µM"}, "[23]": {"target": "DNA (cytosine-5)-methyltransferase 1 (Homo sapiens) (UniProt P26358)", "sequence (P26358 whole entry)": "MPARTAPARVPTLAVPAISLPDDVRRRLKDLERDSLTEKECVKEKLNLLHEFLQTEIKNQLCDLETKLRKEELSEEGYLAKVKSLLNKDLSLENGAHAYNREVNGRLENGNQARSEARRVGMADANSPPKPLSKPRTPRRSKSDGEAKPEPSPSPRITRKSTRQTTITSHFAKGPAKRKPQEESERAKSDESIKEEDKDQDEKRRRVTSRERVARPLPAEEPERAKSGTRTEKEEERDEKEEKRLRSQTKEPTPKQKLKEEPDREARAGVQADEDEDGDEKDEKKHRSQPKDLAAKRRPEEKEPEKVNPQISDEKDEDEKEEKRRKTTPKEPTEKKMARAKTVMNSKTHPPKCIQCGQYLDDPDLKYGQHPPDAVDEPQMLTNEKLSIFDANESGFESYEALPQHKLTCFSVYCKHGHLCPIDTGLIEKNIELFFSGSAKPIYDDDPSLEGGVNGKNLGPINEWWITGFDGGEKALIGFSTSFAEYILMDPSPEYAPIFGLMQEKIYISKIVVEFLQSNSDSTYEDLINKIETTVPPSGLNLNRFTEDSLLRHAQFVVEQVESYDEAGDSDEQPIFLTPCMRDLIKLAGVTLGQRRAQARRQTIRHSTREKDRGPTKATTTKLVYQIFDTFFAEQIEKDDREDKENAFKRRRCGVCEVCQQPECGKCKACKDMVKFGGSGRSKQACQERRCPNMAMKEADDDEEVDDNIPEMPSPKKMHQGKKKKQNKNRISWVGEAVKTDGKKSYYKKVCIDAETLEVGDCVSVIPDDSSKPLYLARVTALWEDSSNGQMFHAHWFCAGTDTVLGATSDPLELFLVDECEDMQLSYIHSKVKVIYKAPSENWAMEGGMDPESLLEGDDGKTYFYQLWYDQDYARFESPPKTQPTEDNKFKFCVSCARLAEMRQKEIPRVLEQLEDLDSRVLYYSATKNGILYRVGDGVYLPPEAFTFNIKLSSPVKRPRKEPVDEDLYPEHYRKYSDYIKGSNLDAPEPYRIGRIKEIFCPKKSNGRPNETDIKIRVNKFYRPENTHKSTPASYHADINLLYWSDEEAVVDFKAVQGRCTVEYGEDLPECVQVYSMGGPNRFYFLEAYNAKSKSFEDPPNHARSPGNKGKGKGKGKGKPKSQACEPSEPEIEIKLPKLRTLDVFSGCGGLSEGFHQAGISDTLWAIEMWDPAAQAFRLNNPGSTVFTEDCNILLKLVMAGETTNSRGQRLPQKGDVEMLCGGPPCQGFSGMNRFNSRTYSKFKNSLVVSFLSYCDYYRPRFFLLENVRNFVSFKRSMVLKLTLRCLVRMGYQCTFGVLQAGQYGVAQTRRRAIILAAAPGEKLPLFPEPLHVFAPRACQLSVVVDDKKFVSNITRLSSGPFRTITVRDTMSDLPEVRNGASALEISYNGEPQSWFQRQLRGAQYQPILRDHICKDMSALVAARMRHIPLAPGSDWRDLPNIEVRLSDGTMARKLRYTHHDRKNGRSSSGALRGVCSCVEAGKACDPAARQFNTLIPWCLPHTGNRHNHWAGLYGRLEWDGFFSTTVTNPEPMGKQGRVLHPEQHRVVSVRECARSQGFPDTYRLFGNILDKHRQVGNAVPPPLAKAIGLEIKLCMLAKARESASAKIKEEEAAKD", "conditions": "at 10 µM"}},
  "data": [
    {"smiles": "CCC(=O)N1CCN(c2ccc(-n3c(=O)ccc4cnc5ccc(-c6cnc7ccccc7c6)cc5c43)cc2C(F)(F)F)CC1", "values": [
      {"measurement": "% of control", "setting": "[1]", "value": 15, "unit": "%"}
    ]},
    {"smiles": "C=CC(=O)Nc1cccc(C(=O)Nc2ccc(Nc3cc(-c4[nH]c(SC)nc4C)ccn3)cc2)c1", "values": [
      {"measurement": "% of control", "setting": "[2]; at 1 µM", "value": 84, "unit": "%"},
      {"measurement": "% of control", "setting": "[2]; at 5 µM", "value": 94, "unit": "%"}
    ]},
    {"smiles": "CN(C(=O)c1cnn2cccnc12)c1cc2c(cc1N1CCOCC1)C(=O)N(C[C@@H](F)C(C)(C)O)C2", "values": [
      {"measurement": "dTM", "setting": "[3]", "value": -0.1, "unit": "K"}
    ]},
    {"smiles": "Nc1cnc(N2CCc3cc(S(=O)(=O)Nc4c(F)cc(Cl)cc4F)cc(N4CCCC4=O)c32)nc1", "note": "[TP-020n]", "values": [
      {"measurement": "% of control", "setting": "[4]", "value": 100, "unit": "%"}
    ]},
    {"smiles": "CC(=O)Nc1cccc(-n2c(=O)n(C3CC3)c(=O)c3c(Nc4ccc(I)cc4F)n(C)c(=O)c(C)c32)c1", "values": [
      {"measurement": "% of control", "setting": "[5]", "value": 101, "unit": "%"}
    ]},
    {"smiles": "Cn1cc(-n2cnc3c(NCc4nc5cc(Cl)c(Cl)cc5[nH]4)nc(N4CCOCC4)nc32)cn1", "values": [
      {"measurement": "% of control", "setting": "[6]", "value": -0.498, "unit": "%"},
      {"measurement": "% of control", "setting": "[7]", "value": -1.78, "unit": "%"}
    ]},
    {"smiles": "CC[C@@H]1[C@H](F)C(=O)N[C@@H]1COc1nccc2cc(C(N)=O)c(OC)cc12", "note": "[ZIMLOVISERTIB]", "values": [
      {"measurement": "% of inhibition", "setting": "[8]", "value": -2.1, "unit": "%"},
      {"measurement": "% of inhibition", "setting": "[9]", "value": 69.1, "unit": "%"},
      {"measurement": "% of inhibition", "setting": "[10]", "value": -2.62, "unit": "%"}
    ]},
    {"smiles": "COCC(=O)NC/C=C/c1ccc2ncnc(Nc3ccc(Oc4ccc(C)nc4)c(C)c3)c2c1", "note": "[CP-724714]", "values": [
      {"measurement": "% of control", "setting": "[11]", "value": 65, "unit": "%"},
      {"measurement": "% of control", "setting": "SRSF protein kinase 1", "value": 100, "unit": "%"},
      {"measurement": "% of control", "setting": "[12]", "value": 0.9, "unit": "%"},
      {"measurement": "% of control", "setting": "[13]", "value": 100, "unit": "%"}
    ]},
    {"smiles": "O[C@H]1CC[C@H](Nc2ncc3nc(Nc4c(F)cc(F)cc4F)n([C@H]4CCOC4)c3n2)CC1", "values": [
      {"measurement": "% of control", "setting": "[14]", "value": 39, "unit": "%"},
      {"measurement": "% of control", "setting": "[15]", "value": 100, "unit": "%"},
      {"measurement": "% of control", "setting": "[16]", "value": 55, "unit": "%"},
      {"measurement": "% of control", "setting": "[17]", "value": 29, "unit": "%"},
      {"measurement": "% of control", "setting": "[18]", "value": 51, "unit": "%"},
      {"measurement": "% of control", "setting": "[19]", "value": 47, "unit": "%"},
      {"measurement": "% of control", "setting": "[20]", "value": 38, "unit": "%"},
      {"measurement": "% of control", "setting": "[21]", "value": 13, "unit": "%"},
      {"measurement": "% of control", "setting": "[22]", "value": 31, "unit": "%"}
    ]},
    {"smiles": "CNCCN1CCC(c2cc(CN(C)C(=O)c3cccc(Oc4ccccc4)c3)ccn2)CC1", "values": [
      {"measurement": "% activity", "setting": "[23]", "value": "> 90", "unit": "%"}
    ]}
  ]
}
